This passage reports IC50 results from patent US20240415819A1, “MACROCYCLIC COMPOUNDS AS PROTEASOME SUBUNIT BETA TYPE-5 INHIBITORS” (Lead Discovery Center GmbH, priority 2021, published 2024).

Test [1] has as its system hPMBC. As to the kind of experiment: Chymotrypsin-like ProteasomeGlo assay in hPBMC. Format: cell-based. The note with it: Homo sapiens; read-out: Pglo hPBMC. The method in brief: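 IC50 derived from luminescent chymotrypsin-like proteasome activity (Suc-LLVY-Glo substrate plus luciferin detection reagent). Measured after 105 min compound exposure at 37 °C, 5% CO2. Cells were human B cells purified from buffy-coat PBMC.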

For test [2], the system named is A549 (human lung carcinoma cell line). As to the kind of experiment: Glo assay of A549 cells (Table 3; ProteasomeGlo plating scheme). In kind it is cell-based. The note with it: Homo sapiens; A549 cells; read-out: PGLo A549. The essentials:
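After acoustic compound transfer, plates incubate 105 min (37° C., 5% CO2). Proteasome-Glo reagent containing Suc-LLVY-Glo substrate is added, plates are shaken, then luminescence is measured after 10-15 min to derive IC50 [nM]. Staurosporine and DMSO serve as controls.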

Test [3] deals with T1, β5 subunit of the human constitutive proteasome (CPS) (Homo sapiens, UniProt P28074).
T1 construct: purchased Boston Biochem E-360
Briefly: β5 inhibition assay, human constitutive proteasome (Suc-LLVY-AMC). Format: biochemical. Particulars: IC50 class, Suc-LLVY-AMC substrate. How it is done:
The enzymatic activity of the β5 subunit of the human constitutive proteasome (CPS) is analyzed. In another assay, which differs from the assay of the human constitutive proteasome only in using the human immunoproteasome (IPS) the enzymatic activity of the β5 subunit of the human immunoproteasome (IPS) is analyzed. […] Inhibition is indicated as IC50 [nM] (“-”=not measured).

For the molecule `Cc1ccc2cc1CNC(=O)[C@H](CCc1ccccc1)NC(=O)[C@@H](NC(=O)OCc1ccccc1)CCC(=O)N1CCC(CCO2)C1` (stereo partly drawn) [Compound 350, benzyl ((9S,12S)-5^4-methyl-8,11,15-trioxo-9-phenethyl-4-oxa-7,10-diaza-1(3,1)-pyrrolidina-5(1,3)-benzenacyclopentadecaphane-12-yl)carbamate], the IC50 in test [1], in test [2] and in test [3] was under 100 nM in each case.
On to `Cc1ccc2cc1CNC(=O)[C@H](CCc1ccccc1)NC(=O)[C@@H](NC(=O)OCc1ccccc1)CCCC(=O)N1CCC(CCO2)C1` (stereo partly drawn) [Compound 352, benzyl ((9S, 12S)-5^4-methyl-8,11,16-trioxo-9-phenethyl-4-oxa-7,10-diaza-1(3,1)-pyrrolidina-5(1,3)-benzenacyclohexadecaphane-12-yl)carbamate], for which the IC50 in test [1] is 100 to 500 nM; in test [2], under 100 nM; in test [3], under 100 nM.
For the molecule `Cc1ccc2cc1CNC(=O)[C@H](CCc1ccccc1)NC(=O)[C@@H](NC(=O)OCc1ccccc1)CCCCC(=O)N1CC(CCO2)C1` [Compound 353, benzyl ((9S,12S)-5^4-methyl-8,11,17-trioxo-9-phenethyl-4-oxa-7,10-diaza-1(3,1)-azetidina-5(1,3)-benzenacycloheptadecaphane-12-yl)carbamate], the IC50 in test [1], in test [2] and in test [3] was under 100 nM in each case.
As for `Cc1cc2cc(c1C)CNC(=O)C(c1cnn(C)c1)NC(=O)CCC(=O)N1CCCC(CCO2)C1` (stereo not drawn) [Compound 355, 5^4,5^5-dimethyl-9-(1-methyl-1H-pyrazol-4-yl)-4-oxa-7,10-diaza-1(3,1)-piperidina-5(1,3)-benzenacyclotetradecaphane-8,11,14-trione], the IC50 in test [1] was under 100 nM; in test [2], over 5000 nM; in test [3], 1000 to 5000 nM.
`Cc1ccc2cc1CNC(=O)C(c1cnn(C)c1)NC(=O)CCCCC(=O)N1CCCC(CCO2)C1` (stereo not drawn) [Compound 356, 5^4-methyl-9-(1-methyl-1H-pyrazol-4-yl)-4-oxa-7,10-diaza-1(3,1)-piperidina-5(1,3)-benzenacyclohexadecaphane-8,11,16-trione]: the IC50 was under 100 nM in test [1], 500 to 1000 nM in test [2] and 500 to 1000 nM in test [3].
For the molecule `Cc1ccc2cc1CNC(=O)C(c1cnn(C)c1)NC(=O)[C@@H](NC(=O)CN1CCCC1)CC(=O)N1CCCC(CCO2)C1` (stereo partly drawn) [Compound 358, N-((12S)-5^4-methyl-9-(1-methyl-1H-pyrazol-4-yl)-8,11,14-trioxo-4-oxa-7,10-diaza-1(3,1)-piperidina-5(1,3)-benzenacyclotetradecaphane-12-yl)-2-(pyrrolidin-1-yl)acetamide], the IC50 in test [1] is under 100 nM; in test [2], under 100 nM; in test [3] it was 100 to 500 nM.
Consider `Cc1ccc2cc1CNC(=O)C(c1cnn(C)c1)NC(=O)[C@@H](NC(=O)[C@@H](C)c1ccccc1)CC(=O)N1CCCC(CCO2)C1` (stereo partly drawn) [Compound 359, (2S)-N-((12S)-5^4-methyl-9-(1-methyl-1H-pyrazol-4-yl)-8,11,14-trioxo-4-oxa-7,10-diaza-1(3,1)-piperidina-5(1,3)-benzenacyclotetradecaphane-12-yl)-2-phenylpropanamide], for which the IC50 in test [1], in test [2] and in test [3] was under 100 nM throughout.
`Cc1ccc2cc1CNC(=O)C(c1cnn(C)c1)NC(=O)[C@@H](NC(=O)C1CCCc3ccccc31)CC(=O)N1CCCC(CCO2)C1` (stereo partly drawn) [Compound 360, N-((12S)-5^4-methyl-9-(1-methyl-1H-pyrazol-4-yl)-8,11,14-trioxo-4-oxa-7,10-diaza-1(3,1)-piperidina-5(1,3)-benzenacyclotetradecaphane-12-yl)-1,2,3,4-tetrahydronaphthalene-1-carboxamide]: the IC50 in test [1], in test [2] and in test [3] was under 100 nM each time.
`CO[C@@H](C(=O)N[C@H]1CC(=O)N2CCCC(CCOc3ccc(C)c(c3)CNC(=O)C(c3cnn(C)c3)NC1=O)C2)c1ccccc1` (stereo partly drawn) [Compound 361, (2R)-2-methoxy-N-((12S)-5^4-methyl-9-(1-methyl-1H-pyrazol-4-yl)-8,11,14-trioxo-4-oxa-7,10-diaza-1(3,1)-piperidina-5(1,3)-benzenacyclotetradecaphane-12-yl)-2-phenylacetamide]: the IC50 in test [1] was under 100 nM; in test [2], 100 to 500 nM; in test [3], under 100 nM.
Take `COc1cccc(CC(=O)N[C@H]2CC(=O)N3CCCC(CCOc4ccc(C)c(c4)CNC(=O)C(c4cnn(C)c4)NC2=O)C3)c1` (stereo partly drawn) [Compound 362, 2-(3-methoxyphenyl)-N-((12S)-5^4-methyl-9-(1-methyl-1H-pyrazol-4-yl)-8,11,14-trioxo-4-oxa-7,10-diaza-1(3,1)-piperidina-5(1,3)-benzenacyclotetradecaphane-12-yl)acetamide]: the IC50 in test [1], in test [2] and in test [3] was under 100 nM in each case.
With `CCOC(=O)N[C@H]1CC(=O)N2CCCC(CCOc3ccc(C)c(c3)CNC(=O)C(c3cnn(C)c3)NC1=O)C2` (stereo partly drawn) [Compound 363, Ethyl ((12S)-5^4-methyl-9-(1-methyl-1H-pyrazol-4-yl)-8,11,14-trioxo-4-oxa-7,10-diaza-1(3,1)-piperidina-5(1,3)-benzenacyclotetradecaphane-12-yl)carbamate], the IC50 in test [1], in test [2] and in test [3] was under 100 nM throughout.
As for `CC(=O)N[C@H]1CC(=O)N2CCCC(CCOc3cccc(c3)CNC(=O)[C@H](CCc3ccccc3)NC1=O)C2` (stereo partly drawn) [Compound 364, N-((9S,12S)-8,11,14-trioxo-9-phenethyl-4-oxa-7,10-diaza-1(3,1)-piperidina-5(1,3)-benzenacyclotetradecaphane-12-yl)acetamide], the IC50 in test [1], in test [2] and in test [3] was under 100 nM each time.
Take `Cc1ccc2cc1CNC(=O)C(CCc1cnccn1)NC(=O)[C@@H](NC(=O)C1(c3ccc(N)cc3)CC1)CC(=O)N1CCCC(CCO2)C1` (stereo partly drawn) [Compound 371, 1-(4-aminophenyl)-N-((9S,12S)-5^4-methyl-8,11,14-trioxo-9-(2-(pyrazin-2-yl)ethyl)-4-oxa-7,10-diaza-1(3,1)-piperidina-5(1,3)-benzenacyclotetradecaphane-12-yl)cyclopropane-1-carboxamide]: the IC50 in test [1], in test [2] and in test [3] was under 100 nM each time.
As to `Cc1ccc2cc1CNC(=O)C(CCc1cnccn1)NC(=O)[C@@H](NC(=O)Cc1ccc(N)cc1F)CC(=O)N1CCCC(CCO2)C1` (stereo partly drawn) [Compound 372, 2-(4-amino-2-fluorophenyl)-N-((9S,12S)-5^4-methyl-8,11,14-trioxo-9-(2-(pyrazin-2-yl)ethyl)-4-oxa-7,10-diaza-1(3,1)-piperidina-5(1,3)-benzenacyclotetradecaphane-12-yl) acetamide], the IC50 in test [1], in test [2] and in test [3] was under 100 nM throughout.
Turning to `Cc1ccc2cc1CNC(=O)[C@H](CCc1ccccc1)NC(=O)[C@@H](NC(=O)Cc1ccccc1C)CC(=O)N1CCCC(CCO2)C1` (stereo partly drawn) [Compound 373, N-((9S,12S)-5^4-methyl-8,11,14-trioxo-9-phenethyl-4-oxa-7,10-diaza-1(3,1)-piperidina-5(1,3)-benzenacyclotetradecaphane-12-yl)-2-(o-tolyl)acetamide], the IC50 in test [1], in test [2] and in test [3] was under 100 nM throughout.
